Test results: patent US20090252704A1, “THERAPIES FOR COGNITION AND LEARNING ENHANCEMENT” (priority 2008, published 2009)

Legend:
scopolamine treated mice = assay: step through passive avoidance (STPA) in scopolamine treated mice; assay type: in vivo, Male C57BL/6 mice
Excerpt: Male C57BL/6 mice weighing 20-25 g (6-8 weeks of age) were maintained in a controlled environment (housed at 5 per cage; at 22-25 C.°; 12/12 light/dark cycle) and allowed to acclimate 2 weeks before initiation of the STPA task. The STPA apparatus consists of a box with two compartments light and dark; each of 20×9.5×16.5 cm^3 (Ugo Basile Rat Passive Avoidance Apparatus, customized for mice with chamber inserts). Mice were transported to the testing facility in covered cages and whilst in training or testing phases were housed at 1 or 2 per cage.
STPA Habituation phase: Mice are placed in the light compartment and latency to enter the dark compartment is recorded. The criteria of success is entrance to the dark compartment within 30 sec twice in three trails or three times in five trials; showing the normal aversion of mice to a highly lit space.
STPA Training phase: In acute drug testing, 2 hrs after habituation is complete; 30 min (t=−30) and 20 min (t=−20) prior to training, scopolamine (or saline) and test drug (or vehicle), respectively, are administered. In the drinking water protocol, at t=−30 prior to training, scopolamine (or saline) is administered. Mice are placed into the light compartment at time zero. Upon entry into the dark compartment, an automatic door closes and 2.0 sec shock (0.5 mA) is delivered through the floor grating. […] The number of trials to reach criterion is recorded for assessment of secondary biomarkers, such as analgesia.
STPA Testing phase: At 24 h and 48 h post training, animals are tested for memory retention without any drug administration. The animals are again placed in the light compartment. Latency to enter the dark side is recorded as a measure of memory consolidation, retention and retrieval.
Scopolamine (1 mg/kg; 1 mg/4 ml) is administered ip. Test compound (1 mg/kg, 1 mg/Kg) administered ip.
Dosing—Behavioral Studies: Drugs and vehicle were administered either i.p. for acute studies (1 mg/kg, or as indicated in the figures, in saline), otherwise in drinking water (20 mg/kg/day).
Drinking water dosing: Rodents drink continuously during the active dark cycle and intermittently during the resting light cycle.

[1] = test system: animal models of chronic learning and cognition impairment; assay: animal models of chronic learning and cognition impairment; assay type: in vivo; details: chronic use

Structure (SMILES) | reversal of cognition deficits, comparison (FIG. 4) (scopolamine treated mice; STPA, scopolamine treated mice) | cognition deficit reversal (FIG. 1, FIG. 2 and FIG. 3) (scopolamine treated mice; in drinking water (20 mg/kg/day), STPA, scopolamine 1 mg/kg ip) | effect on learning and cognition [1] | reversal of cognition deficits, comparison (FIG. 4) (scopolamine treated mice; mouse, in vivo)
Cc1ncsc1CCO[N+](=O)[O-].Cl [GT-1061, 4-methyl-5-(2-nitroxyethyl)thiazole HCl] | reversal of cognition deficits | cognition deficit reversal |  | 
O=[N+]([O-])O[C@H]1CO[C@H]2[C@@H]1OC[C@H]2O[N+](=O)[O-] [ISDN, isosorbide dinitrate] | reversal of cognition deficits |  | enhance learning and cognition | 
Cc1ncsc1CCCl [clomethiazole] |  |  |  | reversal of cognition deficits
